± gives the standard deviation of the averaged measurements.
Assays:
Assay in all cases: level (log10 ratio to DMSO vehicle control); higher = higher biomarker level / cell amount than vehicle control
Settings in all cases: in DMSO
[1] = compound: N=C(N)C(F)(F)C(F)(F)C(F)(F)C(F)(F)C(F)(F)C(F)(F)C(F)(F)F [Perfluorooctanamidine]
Protocol: (§1)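 BioMAP Diversity Plus panel of 12 human primary cell co-culture systems (3C, 4H, LPS, SAg, BT, BF4T, BE3C, CASM3C, HDF3CGF, KF3CT, MyoF, Mphg). Compounds were added 1 h before stimulation and left for 24 h (MyoF 48 h; BT 72 h for soluble read-outs or 6 d for IgG). Biomarkers were read by ELISA, cytotoxicity by SRB, PBMC viability and proliferation by Alamar Blue. Each well value was divided by the mean of 8 DMSO control wells on the same plate and log10 transformed; duplicate blinded samples were tested at 4 concentrations.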

[2] = compound: O=P(O)(O)CCC(F)(F)C(F)(F)C(F)(F)C(F)(F)C(F)(F)C(F)(F)C(F)(F)C(F)(F)F [((Perfluorooctyl)ethyl)phosphonic acid]
Protocol: as §1

[3] = compound: O=C(O)C(F)(F)C(F)(F)C(F)(F)C(F)(F)C(F)(F)C(F)(F)C(F)(F)C(F)(F)Cl [9-Chloro-perfluorononanoic acid]
Protocol: as §1

[4] = compound: OCC(F)(F)C(F)(F)C(F)(F)F [1H,1H-Heptafluorobutanol]
Protocol: as §1

[5] = compound: OCC(F)(F)C(F)(F)C(F)(F)C(F)(F)C(F)(F)C(F)F [1H,1H,7H-Dodecafluoro-1-heptanol]
Protocol: as §1

[6] = compound: CC(C)(C)C(=O)CC(=O)C(F)(F)C(F)(F)C(F)(F)F [(Heptafluorobutanoyl)pivaloylmethane]
Protocol: as §1

[7] = compound: NC(=O)C(F)(F)C(F)(F)C(F)(F)C(F)(F)C(F)(F)C(F)(F)C(F)(F)F [Perfluorooctanamide]
Protocol: as §1

Row | Test System | level (log10) ([1]; 6700 nM) | level (log10) ([1]; 20000 nM) | level (log10) ([1]; 60000 nM) | level (log10) ([2]; 6700 nM) | level (log10) ([2]; 20000 nM) | level (log10) ([2]; 60000 nM) | level (log10) ([3]; 6700 nM) | level (log10) ([3]; 20000 nM) | level (log10) ([4]; 6700 nM) | level (log10) ([4]; 20000 nM) | level (log10) ([4]; 60000 nM) | level (log10) ([5]; 6700 nM) | level (log10) ([5]; 20000 nM) | level (log10) ([5]; 60000 nM) | level (log10) ([6]; 6700 nM) | level (log10) ([6]; 20000 nM) | level (log10) ([6]; 60000 nM) | level (log10) ([7]; 6700 nM) | level (log10) ([7]; 20000 nM) | level (log10) ([7]; 60000 nM)
1 | BT:sIL-2 | 0.0225 ± 0.057 | -0.01 ± 0.031 | -0.002 | 0.0065 ± 0.036 | 0.067 ± 0.069 | -0.107 ± 0.22 | -0.0175 ± 0.066 | -0.0565 ± 0.1 | -0.0065 ± 0.077 | -0.0265 ± 0.011 | 0.0365 ± 0.029 | 0.026 ± 0.013 | -0.0265 ± 0.005 | -0.025 ± 0.045 | -0.0485 ± 0.069 | -0.022 ± 0.0057 | 0.0155 ± 0.067 | 0.0115 ± 0.063 | 0.0045 ± 0.084 | -0.176 ± 0.17
2 | SAg:SRB | -0.0025 ± 0.0078 | 0.0025 ± 0.018 | -0.084 | -0.01 ± 0.021 | -0.042 ± 0.034 | -0.125 ± 0.044 | -0.003 ± 0.0099 | -0.0105 ± 0.005 | -0.0055 ± 0.011 | 0.0045 ± 0.0035 | 0.004 ± 0.0057 | -0.014 ± 0.017 | -0.0105 ± 0.028 | -0.013 ± 0.011 | -0.0035 ± 0.0092 | -0.0025 ± 0.005 | -0.031 ± 0.034 | 0.002 ± 0.0071 | -0.0005 ± 0.0064 | -0.009 ± 0.0014
3 | BF4T:tPA | 0.004 ± 0.014 | -0.027 ± 0.069 | 0.028 | 0.0055 ± 0.013 | 0.0645 ± 0.005 | 0.072 ± 0.054 | -0.075 ± 0.0099 | -0.098 ± 0.0099 | -0.0205 ± 0.00071 | -0.009 ± 0.013 | 0.0155 ± 0.037 | 0.0045 ± 0.0078 | -0.0025 ± 0.00071 | 0.01 ± 0.011 | -0.024 ± 0.027 | -0.033 ± 0.0057 | -0.0225 ± 0.026 | -0.015 ± 0.034 | -0.006 ± 0.017 | -0.004 ± 0.0042
4 | 3C:CD87/uPAR | 0.0265 ± 0.059 | 0.0135 ± 0.028 | 0.042 | 0.0455 ± 0.043 | 0.071 ± 0.025 | 0.0885 ± 0.059 | -0.013 ± 0.017 | -0.011 ± 0.038 | -0.011 ± 0.025 | 0.0085 ± 0.023 | 0.026 ± 0.021 | 0.023 ± 0.0028 | 0.002 ± 0.0099 | -0.0045 ± 0.012 | -0.0255 ± 0.056 | -0.0435 ± 0.026 | -0.0255 ± 0.033 | 0.0075 ± 0.011 | 0.004 ± 0.0099 | 0.0045 ± 0.0092
5 | BF4T:uPA | -0.0185 ± 0.005 | -0.0225 ± 0.011 | 0.05 | 0.008 ± 0.0085 | 0.0185 ± 0.018 | 0.0205 ± 0.057 | -0.0045 ± 0.012 | -0.01 ± 0.0071 | -0.002 ± 0.0071 | -0.019 ± 0.011 | -0.009 ± 0.011 | -0.0125 ± 0.019 | -0.0145 ± 0.0021 | -0.002 ± 0.0014 | -0.006 ± 0.011 | -0.0085 ± 0.005 | -0.025 ± 0.0014 | -0.0175 ± 0.015 | -0.004 ± 0.038 | 0.016 ± 0.027
6 | BF4T:MMP-3 | 0.0035 ± 0.032 | 0.003 ± 0.055 | 0.148 | -0.013 ± 0.02 | 0.009 ± 0.011 | 0.014 ± 0.079 | 0.0535 ± 0.023 | 0.118 ± 0.035 | 0.004 ± 0.016 | -0.0135 ± 0.012 | 0.0055 ± 0.04 | -0.01 ± 0.034 | -0.012 ± 0.038 | 0.001 ± 0.04 | -0.031 ± 0.02 | -0.0345 ± 0.029 | -0.0285 ± 0.057 | -0.007 ± 0.051 | 0.0125 ± 0.012 | 0.019 ± 0.017
7 | BT:PBMC Cytotoxicity | 0.005 | 0 ± 0.031 | 0.006 | 0.0055 ± 0.00071 | 0 ± 0.0057 | 0.0095 ± 0.015 | 0.015 ± 0.028 | 0.0355 ± 0.015 | 0.0095 ± 0.026 | -0.015 ± 0.0099 | 0.0105 ± 0.015 | -0.0155 ± 0.0021 | -0.016 ± 0.013 | -0.049 ± 0.0028 | 0.0255 ± 0.0035 | -0.019 ± 0.011 | 0.0105 ± 0.042 | 0.012 ± 0.024 | 0.0275 ± 0.025 | 0.0635 ± 0.0035
8 | BT:sIL-17F | -0.0225 ± 0.071 | -0.209 ± 0.023 | -0.112 | -0.094 ± 0.081 | 0.035 ± 0.025 | -0.0045 ± 0.088 | -0.0055 ± 0.074 | 0.011 ± 0.024 | -0.007 ± 0.035 | -0.0425 ± 0.29 | -0.0385 ± 0.032 | -0.104 ± 0.2 | -0.0695 ± 0.07 | -0.061 ± 0.064 | -0.069 ± 0.082 | -0.0005 ± 0.036 | -0.119 ± 0.1 | 0.0205 ± 0.0064 | -0.0165 ± 0.035 | -0.0955 ± 0.1
9 | BF4T:CCL2/MCP-1 | 0.031 ± 0.0099 | 0.025 ± 0.045 | 0.06 | 0.0125 ± 0.019 | 0.0295 ± 0.026 | 0.061 ± 0.02 | -0.034 ± 0.028 | -0.0785 ± 0.044 | -0.002 ± 0.018 | 0.003 ± 0.057 | -0.0135 ± 0.0021 | 0.022 ± 0.05 | 0.0085 ± 0.057 | 0.009 ± 0.02 | -0.0085 ± 0.0064 | 0.004 ± 0.038 | -0.223 ± 0.34 | 0.011 ± 0.0042 | -0.0015 ± 0.0035 | -0.009 ± 0.037
10 | BF4T:CD90 | 0.0025 ± 0.015 | -0.0115 ± 0.005 | 0.042 | 0.001 ± 0.0099 | 0.0035 ± 0.005 | 0.014 ± 0.021 | -0.034 ± 0.013 | -0.0285 ± 0.005 | -0.0035 ± 0.012 | -0.0045 ± 0.021 | -0.0045 ± 0.0035 | -0.0045 ± 0.0035 | -0.0085 ± 0.012 | -0.0035 ± 0.015 | -0.0065 ± 0.012 | -0.0015 ± 0.0035 | 0.004 ± 0.0028 | -0.0065 ± 0.0021 | -0.0035 ± 0.021 | -0.0155 ± 0.0035
11 | LPS:IL-1alpha | 0.011 ± 0.024 | -0.0095 ± 0.049 | -0.003 | -0.0215 ± 0.043 | -0.0045 ± 0.029 | -0.024 ± 0.13 | 0.038 ± 0.017 | 0.025 ± 0.021 | -0.028 ± 0.025 | -0.068 ± 0.0085 | 0.0095 ± 0.015 | -0.006 ± 0.0042 | -0.031 ± 0.02 | 0.0025 ± 0.046 | 0.0285 ± 0.00071 | 0.0365 ± 0.0021 | 0.0745 ± 0.026 | -0.032 ± 0.033 | -0.003 ± 0.047 | -0.0395 ± 0.0092
12 | LPS:sPGE2 | -0.019 ± 0.031 | -0.078 ± 0.031 | -0.06 | 0.0605 ± 0.0021 | 0.0675 ± 0.011 | 0.17 ± 0.023 | 0.0175 ± 0.0092 | -0.0895 ± 0.0078 | 0.025 ± 0.04 | -0.0225 ± 0.052 | 0.009 ± 0.027 | -0.0455 ± 0.066 | -0.0115 ± 0.016 | -0.011 ± 0.0057 | 0.058 ± 0.013 | 0.04 ± 0.018 | 0.181 ± 0.023 | 0.019 ± 0.035 | 0.0225 ± 0.025 | 0.0545 ± 0.036
13 | BF4T:PAI-I | 0.007 ± 0.013 | -0.001 ± 0.03 | 0.03 | 0.003 ± 0.0042 | 0.0055 ± 0.011 | 0.016 ± 0.021 | -0.027 ± 0.0042 | -0.052 ± 0.0028 | -0.015 ± 0.0042 | -0.009 | 0.0025 ± 0.028 | 0.0055 ± 0.005 | -0.0035 ± 0.013 | 0.0105 ± 0.013 | -0.0045 ± 0.0021 | 0.001 ± 0.0028 | 0.0085 ± 0.012 | -0.009 ± 0.023 | -0.004 ± 0.017 | 0.0065 ± 0.005

— the supplement of paper PMC10331698
